Results from PubChem BioAssay (NCI).
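Tested at 5 concentrations; 48 h exposure; 96-well plates; endpoints linearly interpolated, else capped at highest concentration. The concentration for 50% growth inhibition is given as GI50. TGI denotes the concentration required for complete inhibition of growth.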

Columns and labels:
Test in all cases: NCI tumour cell line growth inhibition, 48 h
TK-10 renal = system: TK-10 renal
786-0 renal = system: 786-0 renal
SK-MEL-5 melanoma = system: SK-MEL-5 melanoma
UO-31 renal = system: UO-31 renal
M14 melanoma = system: M14 melanoma
OVCAR-5 ovarian = system: OVCAR-5 ovarian
OVCAR-8 ovarian = system: OVCAR-8 ovarian
U251 CNS = system: U251 CNS
UACC-62 melanoma = system: UACC-62 melanoma
MDA-MB-231 breast = system: MDA-MB-231 breast

Structure (SMILES) | GI50 (TK-10 renal) [µM] | TGI (TK-10 renal) [µM] | GI50 (786-0 renal) [µM] | TGI (786-0 renal) [µM] | GI50 (SK-MEL-5 melanoma) [µM] | TGI (SK-MEL-5 melanoma) [µM] | GI50 (UO-31 renal) [µM] | TGI (UO-31 renal) [µM] | GI50 (M14 melanoma) [µM] | TGI (M14 melanoma) [µM] | GI50 (OVCAR-5 ovarian) [µM] | TGI (OVCAR-5 ovarian) [µM] | GI50 (OVCAR-8 ovarian) [µM] | TGI (OVCAR-8 ovarian) [µM] | GI50 (U251 CNS) [µM] | TGI (U251 CNS) [µM] | GI50 (UACC-62 melanoma) [µM] | TGI (UACC-62 melanoma) [µM] | GI50 (MDA-MB-231 breast) [µM] | TGI (MDA-MB-231 breast) [µM]
COc1cccc2c1C(=O)c1c(O)c3c(c(O)c1C2=O)C[C@@](O)(C(=O)CO)C[C@@H]3OC1CC2C(OCN2CN2COC3C(C)OC(O[C@H]4C[C@](O)(C(=O)CO)Cc5c(O)c6c(c(O)c54)C(=O)c4c(OC)cccc4C6=O)CC32)C(C)O1 (stereo partly specified) | 0.0205 | 0.0752 | 0.00274 | 0.0343 | 0.0143 | 0.0492 | 0.00304 | 0.0283 | 0.0067 | 0.0405 | 0.0304 | > 0.264 | 0.0113 | > 1 | 0.00291 | 0.0979 | 0.0032 | 0.0159 | 0.0156 | 0.072
O=C1c2ccccc2-n2c1nc1ccc([N+](=O)[O-])cc1c2=O |  | > 100 |  | > 100 |  | > 100 |  | > 100 |  | > 100 |  | > 100 |  | 46.6 |  | > 100 |  | > 100 |  | > 100
CCOC(=O)c1c(C)n(Cc2ccc(Cl)cc2Cl)c2c1cc(O)c1[nH]c(Cc3ccccc3)nc12 | 7.07 | 29 | 3.67 | 13.7 | 1.58 | 3.25 | 3.75 | 16.6 | 11 | 37.5 | 3.65 | 9.36 | 3.19 | 11 | 3.41 | 12.1 | 18.6 | 34.1 | 3.61 | 12.5
C(#Cc1ccccc1C#Cc1cnccn1)c1cnccn1 | 27.2 | > 78.2 | 30.5 | > 100 | 16.9 | 35.9 | > 40.3 | > 68.4 | 19.3 | 48.9 | > 61.7 | > 100 | 38.2 | > 72.6 | 48 | > 100 | 17.5 | 51.4 | 21.4 | > 71.9
CCCCCCCCCCCCNCCCc1ccccc1 | 1.63 | 2.98 | 1.8 | 3.33 | 1.73 | 3.11 | 1.86 | 4.35 | 1.76 | 3.25 | 1.68 | 3.48 | 1.75 | 3.39 | 1.53 | 2.86 | 1.76 | 3.29 | 1.61 | 3.12
C[C@H]1CCC/C=C/[C@@H]2C[C@H](O)C[C@H]2[C@H](O)C(O)C(O)C(=O)O1 (stereo partly specified) | 6.42 | > 100 | 0.788 | > 100 | 0.362 |  | 3.44 | > 76.1 | 3.61 | > 100 | 6.24 | > 100 | 1.16 | 5.11 | 3.51 | > 100 | 1.07 |  | 2.5 | 4.84
Cc1ccc(S(=O)(=O)NC(=O)Nc2ncn[nH]2)cc1 |  | > 100 |  | > 100 |  | > 100 |  | > 100 |  | > 100 |  | > 100 |  | > 100 |  | > 100 |  | > 100 |  | > 100
O=C1OC(=O)c2c1cc1cc3c(cc1c2-c1ccc2c(c1)OCO2)OCO3 |  | > 100 |  | 48.1 |  | > 100 |  | > 100 |  | > 100 |  | > 100 |  | > 100 |  | > 100 |  | > 100 |  | > 100
CN(C)Cc1nsc(N(C)C)n1 |  | > 100 |  | > 100 |  | > 100 |  | > 100 |  | > 100 |  | > 100 |  | > 100 |  | > 100 |  | > 100 |  | > 100
COc1ccc(C(=O)c2no[n+]([O-])c2C(=O)c2ccc(OC)cc2)cc1 | 1.41 | 2.82 | 2.62 | 6.32 | 12.6 | 25.1 | 0.588 | 1.17 | 3.5 | 11.7 | 10.6 | 25.7 | 2.67 | 6.6 | 2.53 | 7.07 | 10.3 | 23.9 | 2.77 | 8.16
CC1=C(C(=O)Nc2cc(F)c(F)cc2F)C(c2ccc(N(C)C)cc2)C(C(=O)Nc2cc(F)c(F)cc2F)=C(C)N1 |  | > 96 |  | > 100 |  | > 74.3 |  | > 84.4 |  | > 100 |  | > 100 |  | > 100 |  | > 100 | 12.2 | 89.8 | 19 | > 100
O=C1/C(=C/c2ccccc2)CN(C(=O)/C=C/c2ccccc2)C/C1=C\c1ccccc1 |  | 65.3 |  | 8.27 |  | > 35 |  | 20.6 |  | 12.8 |  | 45.2 |  | 9.78 |  | 7.37 |  | 16.2 |  | 10.9
CC(C)(C)c1ccc(OCCCCCCCN2CCNCC2)cc1 | 1.6 | 3.06 | 1.63 | 3.07 | 1.82 | 3.4 | 1.43 | 3.31 | 1.55 | 3.02 |  |  |  |  | 1.51 | 3.05 | 1.88 | 3.6 | 1.31 | 3.02
O=NN(CC(=O)NNc1ccccc1)CC(=O)NNc1ccccc1 | > 100 | > 100 | 7.85 | > 100 | 8.67 | > 100 | 2.22 | > 100 | 3.8 | > 100 | > 100 | > 100 | 9.88 | > 100 | > 100 | > 100 | 0.479 | 7.9 | 3.54 | > 100
CCOC(=O)c1nc2sc(Cl)cn2c1/C=N/N=C(N)N | 22.2 | 47.6 | 18.6 | 39.8 | 1.72 | > 23.1 | 18.3 | 35.6 | 18.8 | 45.6 | 20.7 | 49.5 | 26.9 | > 53.8 | 23.6 | > 53.9 | 17.6 | 34.5 | 14.3 | 37.2
